Data taken from patent US11795404B2, “Composition for removing sulfur-containing compounds” (KURARAY CO., LTD., priority 2018, dated 2023).

Legend:
[1] = Sulfur-containing compound removal reaction, BuSH in liquid hydrocarbon (GC-SCD); conditions: BuSH 50 μL (1000 ppm by volume) in kerosene 50 mL; aldehyde 250 μL; room temperature; reaction time 1 day
Protocol: In a 100 mL three-neck flask, 50 mL of kerosene was put and 50 μL (1000 ppm by volume, 0.46 mmol) of BuSH was added thereto to obtain a kerosene solution containing a sulfur-containing compound.
Next, 250 μL (2.59 mmol) of SAL and 250 μL (1.71 mmol) of DBU were added to the kerosene solution, and the solution was stirred at room temperature (20° C.±5° C., the same applies hereinafter) and at 800 rpm to perform a sulfur-containing compound removal reaction.
After 1-day reaction, the mercaptan concentration of the liquid phase in the three-neck flask was measured.
The mercaptan concentration of the liquid phase was measured using a calibration curve method by gas chromatography. The gas chromatography was performed under the following conditions.
Analyzer: GC-SCD (manufactured by Agilent Technologies Japan, Ltd.)
Detector: sulfur chemiluminescence detector (SCD)
Column: DB-sulfur SCD (length: 60 m, thickness: 4.2 μm, inner diameter: 0.32 mm) (manufactured by Agilent Technologies Japan, Ltd.)
Analytical conditions: inject. temp. 250° C., detect. temp. 250° C.
Temperature rise condition: 35° C. (kept for 3 minutes) (raised at 10° C./min)→250° C. (kept for 15 minutes)
Internal Standard Substance: diphenyl sulfide
A sulfur-containing compound removal reaction was performed in the same manner as in Example 3 except that crude oil was used in place of kerosene.

[2] = conjugate acid in water at 25° C.; cited from earlier work

SMILES	Removal rate [1] [%]	pKa [2]
CC(C)=CC=O [Comparative Example 1, Senecioaldehyde]	<10	
C=CC=O [Comparative Example 4, Acrolein]	15	
C1CCC2=NCCCN2CC1 [DBU, 1,8-Diazabicyclo[5.4.0]-7-undecene]		11.5
CN(C)CCN(C)CCN(C)C [PMDETA, N,N,N′,N″,N″-Pentamethydiethylenetriamine]		9.1
